Source: patent publication US11066634B2, “Culture device and methods for enumerating mold colonies” (3M INNOVATIVE PROPERTIES COMPANY, priority 2013, dated 2021)
Like-named read-outs stand apart in the source and are kept apart here.

Assays:
Aspergillus niger [1] = experiment: Aspergillus niger on PYM plates with EGTA in the inoculum (Example 13); type: cell-based; details: for Reduction in colony area / Colony area: 48 hours; for 48 hour count / 72 hour count: total for three plates
Description: A 4-millimolar solution of ethylene glycol tetraacetic acid (EGTA) was prepared by dissolving 15.2 milligrams of EGTA in 10 milliliters of Butterfield's buffer. Serial two-fold dilutions were prepared to provide solutions containing 2 millimolar and 1 millimolar EGTA, respectively. “EGTA”, as used in the Examples, refers to ethylene glycol-bis(2-aminoethylether)-N,N,N′,N′-tetraacetic acid (67-42-5) obtained from Sigma-Aldrich (St. Louis, Mo.). A suspension of Aspergillus niger was diluted and added to the solutions as described in Example 12 to provide final cell concentrations of approximately 5 cfu per ml. Three replicate devices were prepared by inoculating 1 milliliter of the mold suspensions to PYM plates according to the manufacturer's instructions. Images of the plates were obtained after 48 hours and 72 hours of incubation, respectively. […] The average colony size after 48 hours of incubation was determined by imaging the plates and analyzing the images as described above.

C. guillermondi = details: for Colony area (mean ± standard deviation): 91 hours
Description: (§1) Thin film culture devices were prepared as described above. Three yeast strains were serially diluted from a frozen stock to provide a final concentration of approximately 100 CFU per ml. The thin film culture devices were inoculated, incubated for 91 hours, imaged, and analyzed as described above.

Aspergillus niger [2] = system: Aspergillus niger
Description: A diluted suspension of Aspergillus niger was prepared as described in example 1. A 1 millimolar solution of EDTA was prepared by dissolving 3.7 milligrams of EDTA in 10 milliliters of Butterfield's buffer. The Aspergillus niger diluted suspension was added to the EDTA/Butterfield's to provide a cell concentration of approximately 5 cfu per milliliter. Five replicate devices were prepared by adding one milliliter of the inoculum to PYM plates according to the manufacturer's instructions. A set of control plates was prepared from a 5 cfu per ml solution of Aspergillus niger containing no EDTA.

[3] = system: mold species shown in Table 7; details: for some species; EDTA concentrations higher than 1 wt % of the dry powder coatings
Description: The mold species shown in Table 7 were serially diluted, inoculated, incubated, imaged, and analyzed as described for the A. niger cultures.

C. glabrata = details: for Colony area (mean ± standard deviation): 91 hours
Description: as §1

R. mucilaginosa = details: for Colony area (mean ± standard deviation): 91 hours
Description: as §1

[4] = system: Aspergillus niger (ATCC #16484); details: for Colony Size Reduction: 1 mM vs 0 mM EDTA
Description: Fat free skim milk was purchased from a local grocery store. 3.7 milligrams of disodium EDTA dihydrate was added to 10 milliliters of the fat-free skim milk to provide a final concentration of 1 millimolar EDTA. A suspension of Aspergillus niger (ATCC #16484) was diluted in Butterfields buffer to a concentration of approximately 500 colony forming units per milliliter. 100 microliters of the diluted suspension was added to the milk sample. After briefly vortexing, 1 milliliter of the milk sample containing the mold was used to inoculate PYM plates according to the manufacturer's instructions. The PYM plates were incubated at 30° C. for 48 hours, followed by imaging and colony size analysis as described above. A control sample (without milk) was also prepared in Butterfield's buffer.

[5] = EDTA at concentrations below 1%
[6] = EDTA concentrations higher than 1%

## O=C(O)CN(CCOCCOCCN(CC(=O)O)CC(=O)O)CC(=O)O [EGTA, ethylene glycol-bis(2-aminoethylether)-N,N,N′,N′-tetraacetic acid]
Aspergillus niger [1]; 1 mM EGTA vs 0 mM control
  Reduction in colony area: −9%
Aspergillus niger [1]; 1 mM EGTA
  Colony area: 24107 pixels
  48 hour count: 12
  72 hour count: 12
Aspergillus niger [1]; 2 mM EGTA vs 0 mM control
  Reduction in colony area: −43%
Aspergillus niger [1]; 2 mM EGTA
  Colony area: 15177 pixels
  48 hour count: 14
  72 hour count: 14
Aspergillus niger [1]; 4 mM EGTA vs 0 mM control
  Reduction in colony area: −78%
Aspergillus niger [1]; 4 mM EGTA
  Colony area: 5772 pixels
  48 hour count: 11
  72 hour count: 11

## disodium ethylenediamine tetraacetic acid dihydrate [EDTA]
C. guillermondi; 0.5% EDTA
  Colony area (mean ± standard deviation): 490 ± 129 pixels
C. guillermondi; 1% EDTA
  Colony area (mean ± standard deviation): 201 ± 119 pixels
C. guillermondi; 2.3% EDTA
  Colony area (mean ± standard deviation): 381 ± 140 pixels
C. guillermondi; 4.2% EDTA
  Colony area (mean ± standard deviation): 162 ± 92 pixels
C. guillermondi; [5]
  effect on colony size: not affected
Aspergillus niger [2]; 1 mM EDTA in inoculum, 48 hours
  Colony area: 1492 pixels
Aspergillus niger [2]; 1 mM EDTA in inoculum, 48 hr
  CFUs (48 hr): 15
Aspergillus niger [2]; 1 mM EDTA in inoculum, 72 hr
  CFUs (72 hr): 16
Aspergillus niger [2]; 1 mM EDTA, after 48 hours of incubation
  average colony diameter smaller than the control plates: approximately 20 fold
[3]
  delay in the appearance of visible colonies: a delay in the appearance of visible colonies was observed
C. glabrata; 0.5% EDTA
  Colony area (mean ± standard deviation): 487 ± 300 pixels
C. glabrata; 1% EDTA
  Colony area (mean ± standard deviation): 308 ± 201 pixels
C. glabrata; 2.3% EDTA
  Colony area (mean ± standard deviation): 0 ± 0 pixels
C. glabrata; 4.2% EDTA
  Colony area (mean ± standard deviation): 0 ± 0 pixels
C. glabrata; [5]
  effect on colony size: not affected
C. glabrata; [6]
  detection of colonies: not detected
R. mucilaginosa; 0.5% EDTA
  Colony area (mean ± standard deviation): 251 ± 95 pixels
R. mucilaginosa; 1% EDTA
  Colony area (mean ± standard deviation): 148 ± 76 pixels
R. mucilaginosa; 2.3% EDTA
  Colony area (mean ± standard deviation): 0 ± 0 pixels
R. mucilaginosa; 4.2% EDTA
  Colony area (mean ± standard deviation): 0 ± 0 pixels
R. mucilaginosa; [5]
  effect on colony size: not affected
R. mucilaginosa; [6]
  detection of colonies: not detected
[4]; Buffer Control (Butterfield's buffer, without milk), 48 hours
  Colony Area (1 mM EDTA): 3276
[4]; Buffer Control, 48 hours
  Colony Size Reduction: −91%
[4]; Skim Milk sample, 30° C. for 48 hours
  Colony Area (1 mM EDTA): 3789
[4]; Skim Milk sample, 48 hours
  Colony Size Reduction: −86%
